# Molecular target: T1, human recombinant Yes [a.a. 2–543 (end)] (Homo sapiens, UniProt P07947)
# T1 construct: human recombinant Yes [a.a; 2–543 (end)]; purchased BPS Bioscience 40488
# Experiment: ADP-Glo kinase assay, inhibition rates of Yes phosphorylation activity (first and second screening)
# Type: biochemical
# Conditions: first screening; mean of n = 4 wells; 10 μmol L−1 compound
# In short: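 Hits from a first pass were rescreened after re-dissolution from fresh powder. The first pass reported the mean inhibition rate of quadruplicate wells per compound. Activity was that of recombinant human Yes [a.a. 2–543] kinase, read out with the ADP-Glo ADP-detection method.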
# T1 sequence (P07947 2-543): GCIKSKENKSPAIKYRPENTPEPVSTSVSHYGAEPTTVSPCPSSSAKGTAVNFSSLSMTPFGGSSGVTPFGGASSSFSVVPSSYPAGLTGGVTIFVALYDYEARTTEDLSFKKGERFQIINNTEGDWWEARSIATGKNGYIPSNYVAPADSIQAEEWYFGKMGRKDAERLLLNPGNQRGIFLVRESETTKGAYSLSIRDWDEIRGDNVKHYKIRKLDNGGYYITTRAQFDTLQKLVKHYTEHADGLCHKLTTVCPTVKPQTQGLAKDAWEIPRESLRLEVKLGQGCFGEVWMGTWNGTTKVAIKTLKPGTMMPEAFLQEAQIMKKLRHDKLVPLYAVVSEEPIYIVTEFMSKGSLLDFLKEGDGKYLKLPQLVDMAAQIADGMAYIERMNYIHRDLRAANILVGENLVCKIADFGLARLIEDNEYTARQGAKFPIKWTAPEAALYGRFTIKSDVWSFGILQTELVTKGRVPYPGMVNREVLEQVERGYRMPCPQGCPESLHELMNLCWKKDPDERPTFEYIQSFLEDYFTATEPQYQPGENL
row,Compound,First screening IR (inhibition rate)
1,Nc1nc(-c2ccccc2)c2cc(C(=O)c3ccccc3O)cnn12 [Compound Z199055452],7%
2,COc1ccccc1NC(=O)c1ccc(NC(=O)COc2ccc(C3SCCS3)cc2)cc1 [Compound Z17289317],1%
3,C[S+]([O-])CCNC(=O)c1ccc(-c2cc(Cl)cc(Cl)c2)s1 (stereo not drawn) [Compound Z1220303895],-13%
4,O=C1NCc2cccc(NS(=O)(=O)c3c(Cl)ccnc3Cl)c21 [Compound Z1556993367],-3%
5,CCC(C)(C)C1C/C(=C\c2c(Cl)cccc2Cl)c2nc3ccccc3c(C(=O)O)c2C1 (stereo not drawn) [Compound Z46116634],45%
6,COc1cc(/C=N/Nc2ncnc3scc(-c4ccccc4)c23)ccc1O [Compound Z49889617],13%
7,COCc1nnc(-c2cccc(-c3nc(-c4cccs4)no3)c2)o1 [Compound Z1601587562],11%
8,Cc1ccc(-c2cc(-c3cccc(C)c3)nc3ccccc23)cc1 [Compound Z1844441892],9%
9,O=C(CSc1ccc(S(=O)(=O)N2CCCC2)cn1)c1ccc2c(c1)OCO2 [Compound Z335869204],12%
10,COC(=O)c1c(Nc2nc3ccccc3nc2N2CCN(C/C=C/c3ccccc3)CC2)sc(C)c1C [Compound Z56867786],11%
11,CC(NC(=O)CCc1nc2ccccc2c(=O)[nH]1)c1cccc(C(F)(F)F)c1 (stereo not drawn) [Compound Z28541828],-5%
12,C/C(N)=C(\C#N)C(=O)CSc1nnc(-c2ccccc2F)n1Cc1ccccc1 [Compound Z15780020],-17%
13,Cc1ccc2[nH]c(C)c(CC(=O)Nc3n[nH]c(-c4ccccn4)n3)c2c1 [Compound Z653347886],-3%
14,CCC(C)CS(=O)(=O)N1CCS(=O)(=O)C(C)(C)C1 (stereo not drawn) [Compound Z1403432995],11%
15,CCN(CC)S(=O)(=O)c1ccc(Cl)c(NC(=O)COC(=O)c2cc(-c3ccc4cc(OC)ccc4c3)nc3ccccc23)c1 [Compound Z18792611],-19%
16,Cc1ccc(-c2cc(C(=O)NC(C)c3ccccn3)c3cnn(C(C)C)c3n2)cc1 (stereo not drawn) [Compound Z225035912],16%
17,C=CCN1C(=O)c2ccc(C(=O)OCc3cn4ccccc4n3)cc2C1=O [Compound Z16715300],29%
18,O=C(Cn1c(CN2CCOCC2)nc2sc3c(c2c1=O)CCCC3)Nc1ccc(OCc2ccccc2)cc1 [Compound Z86108588],16%
19,NC(=O)c1cc(NC(=O)c2cc(-c3ccccc3Cl)n[nH]2)ccc1F [Compound Z368298320],-18%
20,O=C(NCc1ccccc1)Nc1ccc2oc(C3CC3)nc2c1 [Compound Z369933958],11%
21,Cc1cc(=O)[nH]c(C(C)Sc2ncn(-c3ccccc3)n2)n1 (stereo not drawn) [Compound Z1415883225],34%

row,Compound,First screening IR (inhibition rate)
1,N#Cc1cccc(/C=C2/C(=O)Nc3ccccc32)c1 [Compound Z228595564],8%
2,NC(=O)C1(CNC(=O)c2cc3c(cc2O)CCCC3)CCOCC1 [Compound Z856541214],17%
3,O=C(Nc1cccc(COc2cccc(F)c2)c1)c1ccc(=O)[nH]n1 [Compound Z383786992],-2%
4,CC(=O)Nc1ccc(/C=C2/CCCc3c2nc2ccccc2c3C(=O)O)cc1 [Compound Z46035730],5%
5,CC(C)S(=O)(=O)CCS(=O)(=O)Cc1ccccc1 [Compound Z1347350572],2%
6,Cc1sc2nc(-c3cccnc3)nc(N3CCOCC3)c2c1-c1ccccc1 [Compound Z31211547],13%
7,O=S(=O)(c1ccc(Cl)cc1)C1(S(=O)(=O)c2ccc(Cl)cc2)CCCC1 [Compound Z56759577],-18%
8,O=C(CS(=O)(=O)CCCc1ccccc1)Nc1ccc(-n2ccnc2)nc1 [Compound Z407006622],-20%
9,O=C(c1cccn1Cc1ccncc1)N1CCOC(c2ccc(F)cc2)C1 (stereo not drawn) [Compound Z998371530],13%
10,Cc1c(/C=C2/C(=O)Nc3ccc(F)cc32)cnn1C [Compound Z1517268554],31%
11,CN(C(=O)c1ccc2c(c1)CC(c1ccccc1)OC2=O)c1nc2ccccc2s1 (stereo not drawn) [Compound Z238298390],-4%
12,O=C(Nc1ccccc1OC(F)F)c1ccc2c(c1)C(=O)N(Cc1ccncc1)C2=O [Compound Z27081729],20%
13,CCCCCn1c(-c2ccc(Sc3ccc(C)cc3)c([N+](=O)[O-])c2)nc2c1c(=O)[nH]c(=O)n2CCCC [Compound Z50141536],-20%
14,Cn1c(=O)[nH]c(=O)c2c1nc(N1CCN(Cc3ccccc3)CC1)n2CCSc1nnnn1-c1ccccc1 [Compound Z239092730],47%
15,Cn1cc(CNC2CCc3ncnn3C2)c(-c2ccncc2)n1 (stereo not drawn) [Compound Z1139562831],22%
16,CN(C)S(=O)(=O)CCCS(=O)(=O)Cc1cccc(F)c1 [Compound Z1127660834],6%
17,Cn1ncc2c(N3CCCC3CO)ncnc21 (stereo not drawn) [Compound Z817034034],3%
18,COc1ccc(S(=O)(=O)NCC(=O)OCC(=O)Nc2ccc(Cl)c(C(F)(F)F)c2)cc1 [Compound Z24395276],8%
19,CCn1c(C)cc(C(=O)N2CCc3[nH]c4ccccc4c3C2)c1C [Compound Z231937310],6%
20,O=C(/C=C/c1cccs1)Nc1cc(-c2cccc([N+](=O)[O-])c2)sc1C(=O)O [Compound Z204342158],58%
21,C#CC(COC)NS(=O)(=O)CCCS(C)(=O)=O (stereo not drawn) [Compound Z1787994415],4%

row,Compound,First screening IR (inhibition rate)
1,COc1ccc(CNCc2cn[nH]c2-c2ccc(C)o2)cn1 [Compound Z446209214],-2%
2,CN(c1cc(C#N)ccn1)S(=O)(=O)c1ccccc1S(C)(=O)=O [Compound Z1833478806],7%
3,Cc1ccc(SCc2nc(N)nc(Nc3ccccc3C)n2)cc1C [Compound Z24835676],-13%
4,O=C(CSc1nnc(-c2c[nH]c3ccccc23)n1-c1ccc(Cl)cc1)N1CCNC1=O [Compound Z19511505],13%
5,Cc1cc(Cl)cc(Br)c1OCCNCCN(C)C.Cl [Compound Z237479802],9%
6,Cn1nc(C2CCC2)cc1NC(=O)c1cc(Br)cnc1Cl [Compound Z1433129748],0%
7,Cc1ccc(C(=O)Nc2ccc(OCc3ccccn3)c(F)c2)cn1 [Compound Z1318975474],-2%
8,COc1ccc(OC)c(-n2c(-c3ccc(C)cc3)nn(CN3CCN(c4ccc(O)cc4)CC3)c2=S)c1 [Compound Z44104256],10%
9,Cc1nn(CCC#N)c2nc(-c3cccnc3)cc(C(F)(F)F)c12 [Compound Z55426831],-2%
10,O=C(O)c1c2c(nc3ccccc13)/C(=C\c1ccccc1)CCC2 [Compound Z46035726],-14%
11,Cl.N#Cc1c(-c2ccc(Cl)cc2)nc2ccccc2c1-c1ccccc1 [Compound Z57989376],2%
12,CCN1CCN(Cc2ccc(NC(=O)C3CCCN3C(=O)c3ccc4ccccc4c3O)cc2)CC1 (stereo not drawn) [Compound Z992207680],51%
13,N#Cc1ccc(C(=O)OCc2ccc(Br)cn2)[nH]1 [Compound Z1616590793],9%
14,CC(C)(C)n1ncc2c(NCCc3nnc4n3CCCC4)ncnc21 [Compound Z1661117530],7%
15,Cc1ccc(C(=O)CC2(O)C(=O)Nc3ccc(Cl)cc32)cc1 (stereo not drawn) [Compound Z57172226],2%
16,CCCN(C1CCS(=O)(=O)C1)S(=O)(=O)CCC (stereo not drawn) [Compound Z830071152],16%
17,COc1ccc(/C=N/Nc2ccnc3cc(Cl)ccc23)cc1O [Compound Z49625943],26%
18,CCn1ncc2c(C(=O)N(C)Cc3ccccc3)cc(-c3ccccc3)nc21 [Compound Z223859126],-16%
19,CC(C)n1ncc2c(C(=O)N(C)CC(=O)Nc3ccc(F)c(F)c3F)cc(-c3ccccc3)nc21 [Compound Z51761022],12%
20,O=C(Cc1csc(-c2ccsc2)n1)Nc1ccc2nc(N3CCOCC3)sc2c1 [Compound Z99468124],8%
21,COCCNc1ncnc2c1c(-c1ccccc1)cn2-c1ccc(OC)cc1 [Compound Z57455912],16%

# Same assay, conditions: second screening, dissolved from fresh powder; n = 4; 10 μmol L−1 compound
row,Compound,Second screening IR (inhibition rate)
1,Cc1c(/C=C2/C(=O)Nc3ccc(F)cc32)cnn1C [Compound Z1517268554],16%
2,O=C(/C=C/c1cccs1)Nc1cc(-c2cccc([N+](=O)[O-])c2)sc1C(=O)O [Compound Z204342158],-7%
3,COc1ccc(/C=N/Nc2ccnc3cc(Cl)ccc23)cc1O [Compound Z49625943],-17%

# Reference: paper PMC5607274, “An iterative compound screening contest method for identifying target protein inhibitors using the tyrosine-protein kinase Yes” (Scientific Reports, 2017)
